Laboratory results reported in ChEMBL document CHEMBL2074073, “The organic cation transporter OCT2 mediates the uptake of beta-adrenoceptor antagonists across the apical membrane of renal LLC-PK(1) cell monolayers” (Br J Pharmacol, 2000).

Tests used:
Type in all cases: functional, cell-based
[1] = target: T1, Solute carrier family 22 member 2 (Homo sapiens, UniProt O15244); assay: (§1) TP_TRANSPORTER: uptake in OCT2-expressing mIMCD3 cells; conditions: mouse
T1 sequence (O15244 whole entry): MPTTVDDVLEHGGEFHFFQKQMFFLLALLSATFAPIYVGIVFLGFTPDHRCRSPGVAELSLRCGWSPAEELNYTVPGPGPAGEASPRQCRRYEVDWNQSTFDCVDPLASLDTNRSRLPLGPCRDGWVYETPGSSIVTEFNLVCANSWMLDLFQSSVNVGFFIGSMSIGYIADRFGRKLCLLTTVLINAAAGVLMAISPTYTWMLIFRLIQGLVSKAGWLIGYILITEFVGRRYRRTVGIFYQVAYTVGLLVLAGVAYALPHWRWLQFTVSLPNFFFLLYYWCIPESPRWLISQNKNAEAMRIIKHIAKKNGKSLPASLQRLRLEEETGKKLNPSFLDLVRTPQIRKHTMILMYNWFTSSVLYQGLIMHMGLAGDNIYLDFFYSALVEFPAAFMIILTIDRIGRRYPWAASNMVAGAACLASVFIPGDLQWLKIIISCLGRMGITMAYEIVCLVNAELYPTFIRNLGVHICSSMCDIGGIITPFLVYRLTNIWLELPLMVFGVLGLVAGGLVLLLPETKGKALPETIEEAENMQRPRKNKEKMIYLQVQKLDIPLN

[2] = target: T1, Solute carrier family 22 member 2; assay: TP_TRANSPORTER: inhibition of cimetidine uptake (Cimetidine: 100 uM, Metoprolol: 1000 uM) in OCT2-expressing mIMCD3 cells; conditions: mouse, mimcd3, 1000 µM
[3] = target: T1, Solute carrier family 22 member 2; assay: TP_TRANSPORTER: inhibition of cimetidine uptake (Cimetidine: 100 uM, Propranolol: 1000 uM) in OCT2-expressing mIMCD3 cells; conditions: mouse, mimcd3, 1000 µM
[4] = substrate: C[n+]1ccc(-c2ccccc2)cc1; assay: as §1

CN/C(=N/CCSCc1nc[nH]c1C)NC#N [CIMETIDINE]
Activity [1]: substrate [+]

COCCc1ccc(OCC(O)CNC(C)C)cc1 (stereo not given) [METOPROLOL]
Activity [2]: inhibitor [(at a rough estimate) 30 % of control]

CC(C)NCC(O)COc1cccc2ccccc12 (stereo not given) [PROPRANOLOL]
Activity [1]: substrate [+]
Activity [3]: inhibitor [(at a rough estimate) 10 % of control]

B1: Solute carrier family 22 member 2 (Homo sapiens) (protein)
chain: MPTTVDDVLEHGGEFHFFQKQMFFLLALLSATFAPIYVGIVFLGFTPDHRCRSPGVAELSLRCGWSPAEELNYTVPGPGPAGEASPRQCRRYEVDWNQSTFDCVDPLASLDTNRSRLPLGPCRDGWVYETPGSSIVTEFNLVCANSWMLDLFQSSVNVGFFIGSMSIGYIADRFGRKLCLLTTVLINAAAGVLMAISPTYTWMLIFRLIQGLVSKAGWLIGYILITEFVGRRYRRTVGIFYQVAYTVGLLVLAGVAYALPHWRWLQFTVSLPNFFFLLYYWCIPESPRWLISQNKNAEAMRIIKHIAKKNGKSLPASLQRLRLEEETGKKLNPSFLDLVRTPQIRKHTMILMYNWFTSSVLYQGLIMHMGLAGDNIYLDFFYSALVEFPAAFMIILTIDRIGRRYPWAASNMVAGAACLASVFIPGDLQWLKIIISCLGRMGITMAYEIVCLVNAELYPTFIRNLGVHICSSMCDIGGIITPFLVYRLTNIWLELPLMVFGVLGLVAGGLVLLLPETKGKALPETIEEAENMQRPRKNKEKMIYLQVQKLDIPLN
Km [4]: 22.2 µM
